Test results as given in article PMC11757143, “Generation and characterization of OX40-ligand fusion protein that agonizes OX40 on T-Lymphocytes” (Frontiers in Immunology, 2025).

Legend:
[1] = system: antigen-specific T cell responses of draining lymph node cells; assay: Antigen recall responses of dLN cells from TNP-KLH/CFA-immunized mice (cytokine ELISA, MTT proliferation); format: in vivo, C57BL/6 mice; settings: 20 µg i.p. on days 1 and 3, TNP-KLH/CFA day 0, dLN day 7, KLH recall 3 days
Excerpt: The following reagents were used for the measurement of cytokines from T cells: anti-IL-2 (JES6-1A12, 503701, BioLegend, San Diego, CA, U.S.A.) capture antibody, biotin-anti-IL-2 (JES6-5H4, 503803, BioLegend) detection antibody, anti-IFN-γ (R4-6A2, 505702, BioLegend) capture antibody, biotin-anti-IFN-γ (XMG1.2, 505804, BioLegend) detection antibody, anti-IL-4 (11B11, 504101, BioLegend) capture antibody, biotin-anti-IL-4 (BVD6-24G2, 504201, BioLegend) detection antibody, anti-IL-17A (TC11-18H10.1, 506901, BioLegend) capture antibody, biotin-anti-IL-17A (TC11-8H4, 507001, BioLegend) detection antibody, HRP streptavidin (405210, BioLegend), and 3,3’,5,5’-tetramethylbenzidine (TMB, 421101, BioLegend). The absorbance was measured at 450 nm or 620 nm using a FilterMax F5 (Molecular Devices, San Jose, CA, U.S.A.).
Groups of C57BL/6 mice from both male and female mice aged between 5 and 15 weeks were immunized subcutaneously at the footpad with 100 µg of 2,4,6-trinitrophenyl-conjugated keyhole limpet hemocyanin (TNP-KLH) emulsified in complete Freund’s adjuvant (CFA) (F5881, Merck) on day 0. Recombinant proteins in PBS were injected intraperitoneally on days 1 and 3. […] Cell viability on day 3 was assessed with a 3-(4,5-dimethylthiazol-2-yl)-2,5-diphenyl-tetrazolium (MTT) (M2128, Merck) assay.

[2] = target: T1, OX40-Fc (Mus musculus, UniProt P47741); parameters: method as in PMID 36450532, PMID 37371066; settings: previous studies; ref [23], [24]; cited from earlier work
T1 construct: made in house
T1 sequence (P47741 20-211 limits assumed): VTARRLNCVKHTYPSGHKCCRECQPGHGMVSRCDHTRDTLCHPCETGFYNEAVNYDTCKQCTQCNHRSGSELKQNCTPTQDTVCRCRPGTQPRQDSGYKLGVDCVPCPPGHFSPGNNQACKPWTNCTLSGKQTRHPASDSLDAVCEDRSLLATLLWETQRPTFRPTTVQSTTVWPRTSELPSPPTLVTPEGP

| Substance | antigen-specific T cell responses (recall IFN-γ, IL-17, IL-4 production and proliferation of dLN cells) [1] | specific interaction with OX40 [2] |
| --- | --- | --- |
| Fc-MBL-OX40L: Fusion protein: human IgG1 Fc (hinge, CH2, CH3), PA, MBL collagen-like domain, OX40L THD | failed to effectively stimulate in vivo T cell responses |  |
| MBL-OX40L: Fusion protein: PA peptide tag, collagen-like domain of mannose-binding lectin, extracellular TNF homology domain of mouse OX40L |  | specifically interact with OX40 |
